Measurements: ChEMBL document CHEMBL1201862, “PubChem BioAssay data set” (2004)
Several values for one entry are separate records, joined by “and”; a condition that tells them apart may be missing. Equal entries are not always repeated.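 Five concentrations, 48 hours, 96-well plates. GI50 = concentration required for 50% inhibition of growth.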 Activity calls are given as the source filed them. No stated cut-off is given here; in the data, active = GI50 up to about 1.1 µM and inactive = higher.

How the values were obtained:
Test in all cases: inhibition of tumour cell growth, NCI panel, 48 h
[1] = system: HOP-62
[2] = system: A549
[3] = system: TK-10
[4] = system: HCC 2998
[5] = system: SN12C
[6] = system: UACC-62
[7] = system: HOP-92
[8] = system: SNB-19
[9] = system: K562
[10] = system: SW-620
[11] = system: SK-MEL-28
[12] = system: DLD-1
[13] = system: HCT-116
[14] = system: SK-MEL-2
[15] = system: MOLT-4
[16] = system: NCI-H23
[17] = system: OVCAR-3
[18] = system: SF-539
[19] = system: MCF7
[20] = system: OVCAR-5

Row | SMILES | GI50 [1] | GI50 [2] | GI50 [3] | GI50 [4] | GI50 [5] | GI50 [6] | GI50 [7] | GI50 [8] | GI50 [9] | GI50 [10] | GI50 [11] | GI50 [12] | GI50 [13] | GI50 [14] | GI50 [15] | GI50 [16] | GI50 [17] | GI50 [18] | GI50 [19] | GI50 [20]
1 | COc1ccc2nc3ccccc3c(NCCCCN(C)CCCl)c2c1 | 82 nM (active) | 28.6 nM (active) | 0.638 µM (active) | 89.3 nM (active) | 18.4 nM (active) | 37.3 nM (active) | 60.4 nM (active) | 191 nM (active) | 23.1 nM (active) | 15.1 nM (active) | 367 nM (active) | 47.1 nM (active) | 19.9 nM (active) | 146 nM (active) | < 10 nM (active) | 51.3 nM (active) | 39.2 nM (active) | 68.9 nM (active) | < 10 nM (active) | 186 nM (active)
2 | COc1cc2c(c(OC)c1OC)-c1ccc(SC)c(=O)cc1[C@@H](NC(=O)C(F)(F)F)CC2 | < 10.3 nM (active) | < 10 nM (active) | 8.63 µM (inactive) | < 10 nM (active) | < 10 nM (active) | < 10.2 nM (active) | < 10 nM (active) | < 10 nM (active) | < 10 nM (active) | < 10 nM (active) | 766 nM (active) | < 10 nM (active) | < 10 nM (active) | < 10 nM (active) | < 10 nM (active) | < 10 nM (active) | < 15.8 nM (active) | < 10 nM (active) | < 10 nM (active) | 259 nM (active)
3 | C[N+](C)(C)CC(=O)N/N=C(\C(=O)NC1=C(Cl)C(=O)c2ccccc2C1=O)C(C#N)c1csc(-c2ccc([N+](=O)[O-])cc2)n1 (stereo not drawn) | > 100000 nM (inactive) | > 100000 nM (inactive) | > 100 µM (inactive) | > 100000 nM (inactive) | > 100000 nM (inactive) | > 100000 nM (inactive) | > 100000 nM (inactive) | > 100000 nM (inactive) | > 100000 nM (inactive) | > 100000 nM (inactive) | > 100000 nM (inactive) | > 100000 nM (inactive) | > 100000 nM (inactive) | > 100000 nM (inactive) | > 100000 nM (inactive) | > 100000 nM (inactive) | > 100000 nM (inactive) | > 100000 nM (inactive) | – | > 100000 nM (inactive)
4 | C[C@H]1CCC/C=C/[C@@H]2C[C@H](O)C[C@H]2[C@H](O)/C=C/C(=O)O1 [BREFELDIN A] | – | – | 36.7 nM (active) and 40.8 nM (active) | – | – | < 14.2 nM (active) and 18.2 nM (active) | 80 nM (active) and 41.7 nM (active) | – | 36.6 nM (active) and 71.5 nM (active) | 32.7 nM (active) and < 17.4 nM (active) | 19.2 nM (active) and < 19.9 nM (active) | 13.4 nM (active) | 18.2 nM (active) and 23.3 nM (active) | 47.4 nM (active) and 30.6 nM (active) | – | 12.5 nM (active) and 25.1 nM (active) | < 18.2 nM (active) and 30.5 nM (active) | < 21.4 nM (active) and 21.1 nM (active) | < 16.4 nM (active) and 26.3 nM (active) | < 24 nM (active) and 44 nM (active)
5 | CCCCCCCCCCCCCCCCOP(=O)([O-])OCC[N+](C)(C)C [MILTEFOSINE] | 14900 nM (inactive) | 7110 nM (inactive) | 2.1 µM (inactive) | 5380 nM (inactive) | 16100 nM (inactive) | 20200 nM (inactive) | 2680 nM (inactive) | 17700 nM (inactive) | 39000 nM (inactive) | 20800 nM (inactive) | 27900 nM (inactive) | 18900 nM (inactive) | 18200 nM (inactive) | 21000 nM (inactive) | 8730 nM (inactive) | 33300 nM (inactive) | 23900 nM (inactive) | 30500 nM (inactive) | 24900 nM (inactive) | 8170 nM (inactive)
